The source of these data is patent publication US10039764B2, “Treatment and diagnosis of cancer and precancerous conditions using PDE10A inhibitors and methods to measure PDE10A expression” (University of South Alabama, priority 2013, dated 2018).

pIC50: −log10 of the molar value. Read-outs that look alike come from different tables or passages of the source.

For one assay, the target named is T1, PDE10A (Homo sapiens, UniProt Q9Y233).
T1 construct: other: substrate cGMP; recombinant enzyme; other: substrate cAMP
T1 sequence (Q9Y233 290-1055 limits assumed): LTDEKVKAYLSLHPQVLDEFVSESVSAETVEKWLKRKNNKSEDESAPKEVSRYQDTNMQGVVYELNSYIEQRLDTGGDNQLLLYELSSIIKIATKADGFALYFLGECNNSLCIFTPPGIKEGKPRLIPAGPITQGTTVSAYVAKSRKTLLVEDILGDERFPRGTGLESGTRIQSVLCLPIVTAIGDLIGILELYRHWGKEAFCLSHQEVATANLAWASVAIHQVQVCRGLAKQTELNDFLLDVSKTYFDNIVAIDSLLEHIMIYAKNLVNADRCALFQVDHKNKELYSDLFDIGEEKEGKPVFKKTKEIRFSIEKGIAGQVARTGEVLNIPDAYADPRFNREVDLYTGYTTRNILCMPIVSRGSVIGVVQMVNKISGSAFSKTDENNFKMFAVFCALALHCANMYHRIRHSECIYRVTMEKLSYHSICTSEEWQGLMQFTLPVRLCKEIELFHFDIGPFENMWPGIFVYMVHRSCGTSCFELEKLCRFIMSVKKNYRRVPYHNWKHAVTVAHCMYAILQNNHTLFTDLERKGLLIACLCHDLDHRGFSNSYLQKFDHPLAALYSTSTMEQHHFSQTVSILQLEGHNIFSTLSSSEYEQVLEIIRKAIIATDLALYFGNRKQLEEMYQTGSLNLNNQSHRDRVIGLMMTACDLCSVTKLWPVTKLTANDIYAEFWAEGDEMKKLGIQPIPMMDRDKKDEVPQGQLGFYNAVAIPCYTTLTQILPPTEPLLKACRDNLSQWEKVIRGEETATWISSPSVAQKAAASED
Put plainly: IMAP fluorescence polarization PDE assay, PDE10A. It counts as biochemical. As to conditions: recombinant enzyme. How it is done:
(§1) MY5445 was purchased from EMD Millipore. […] Recombinant PDE enzymes were purchased from BPS Biosciences. DMSO was used as the vehicle for testing effects of all compounds.
(§2) PDE enzymatic activity was measured using IMAP fluorescence polarization assay (Molecular Devices. Inc.). […] For experiments involving cell extracts, 2×10^5 cells per well were plated on a six-well tissue culture plate 72 hours prior to cell lysis.
(§3) The effect of the inhibitors on the growth of human colon tumor and normal colonocytes was measured using the Cell Titer Glo Cell Viability Assay (Promega) as described above. The inhibitory potency toward purified recombinant phosphodiesterase enzymes was measured using the IMAP Phosphodiesterase Assay as described in the Materials and Methods section.
(Fluorescence polarisation rises when a labelled molecule tumbles more slowly, as on binding a larger partner.)

Assay [1] has as its system HCT116 human colon tumor cells. Put plainly: Growth assay (Cell Titer Glo), HCT116. It counts as cell-based. To be noted: Homo sapiens, HCT-116.
From the text: (§4) All cell lines comprising the NCI-60 cancer cell panel were obtained from the NCI Developmental Therapeutics Program and maintained under the same standard conditions. The human normal colonocyte (NCM460) cell line was purchased from Incell (San Antonio, Tex.) and grown according to the manufacturer's specifications. The human colon adenoma cell line, LT97, was a gift from Dr. Brigitte Marian (Medical University Vienna, Austria) and grown according to the provider's specifications. Human mammary epithelial cells (HMEC) were purchased from Lonzo and grown using culture conditions as recommended by the supplier.
(§5) Ninety-six (96)-well microtiter plates were seeded at a density of 5,000 cells per well. For drug treatment, cells were treated with compounds or vehicle control, and incubated at 37° C. for 72 hours. For siRNA assays, cells were transfected with siRNA under the same conditions described above. The effect of treatment with inhibitors or siRNA knockdown of PDE10A on growth was measured using the Cell Titer Glo Assay (Promega), which measures viable cell number based on ATP content.
(§6) Effect of various PDE isozyme inhibitors on the growth of human colon tumor cells HCT116 and HT29 was determined using the Cell Titer Glo Cell Viability Assay (Promega) following 72 hours of treatment.
as §3
On the technique in general: ATP-based viability assays read luminescence as a measure of living cells.

The target of the next assay is T2, PDE11A (Homo sapiens, UniProt Q9HCR9).
T2 construct: purchased BPS Biosciences
T2 sequence (Q9HCR9 whole entry): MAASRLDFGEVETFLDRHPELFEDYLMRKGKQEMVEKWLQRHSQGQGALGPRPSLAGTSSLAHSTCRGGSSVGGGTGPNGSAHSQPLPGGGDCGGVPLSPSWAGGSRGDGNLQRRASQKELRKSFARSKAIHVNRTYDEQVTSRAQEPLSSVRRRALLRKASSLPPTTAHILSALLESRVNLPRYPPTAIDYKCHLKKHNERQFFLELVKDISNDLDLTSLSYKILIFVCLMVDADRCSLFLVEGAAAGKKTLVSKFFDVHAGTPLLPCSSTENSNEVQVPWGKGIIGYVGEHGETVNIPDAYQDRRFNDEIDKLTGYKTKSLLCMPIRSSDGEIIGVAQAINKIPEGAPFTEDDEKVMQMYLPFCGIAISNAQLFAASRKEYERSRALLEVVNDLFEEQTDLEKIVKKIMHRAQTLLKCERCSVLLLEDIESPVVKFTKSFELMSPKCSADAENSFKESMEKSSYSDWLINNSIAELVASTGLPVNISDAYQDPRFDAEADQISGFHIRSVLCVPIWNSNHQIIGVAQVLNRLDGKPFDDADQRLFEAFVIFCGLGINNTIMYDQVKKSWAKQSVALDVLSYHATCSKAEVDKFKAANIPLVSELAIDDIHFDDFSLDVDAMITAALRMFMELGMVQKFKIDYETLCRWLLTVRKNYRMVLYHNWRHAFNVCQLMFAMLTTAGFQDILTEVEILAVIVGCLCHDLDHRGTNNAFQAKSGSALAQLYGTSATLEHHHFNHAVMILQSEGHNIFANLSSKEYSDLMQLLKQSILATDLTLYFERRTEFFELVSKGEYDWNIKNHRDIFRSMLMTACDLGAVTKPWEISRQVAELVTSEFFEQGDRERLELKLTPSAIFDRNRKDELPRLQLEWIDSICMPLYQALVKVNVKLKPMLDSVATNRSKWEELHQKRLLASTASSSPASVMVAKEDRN
The experiment in a line: IMAP fluorescence polarization PDE assay, PDE11A. The assay is classed as biochemical. As to the method:
as §1, §2, §3

The subject of assay [2] is SW480 human colon tumor cells. Put plainly: Growth assay (Cell Titer Glo), SW480. It counts as cell-based.
From the text: as §4, §5, §3

A further assay has as its target T3, PDE3B (Homo sapiens, UniProt Q13370).
T3 construct: purchased BPS Biosciences
The experiment in a line: IMAP fluorescence polarization PDE assay, PDE3B. It counts as biochemical. To be noted: substrate cGMP; read-out: Phosphodiesterase Inhibition PDE3B cGMP IC50. As to the method: as §1, §2, §3

Another assay addresses T4, PDE1A (Homo sapiens, UniProt P54750).
T4 construct: purchased BPS Biosciences
The experiment in a line: IMAP fluorescence polarization PDE assay, PDE1A. The assay is classed as biochemical. As to the method:
as §1, §2, §3

In a further assay the target is T5, PDE4B (Homo sapiens, UniProt Q07343).
T5 construct: purchased BPS Biosciences
T5 sequence (Q07343 whole entry): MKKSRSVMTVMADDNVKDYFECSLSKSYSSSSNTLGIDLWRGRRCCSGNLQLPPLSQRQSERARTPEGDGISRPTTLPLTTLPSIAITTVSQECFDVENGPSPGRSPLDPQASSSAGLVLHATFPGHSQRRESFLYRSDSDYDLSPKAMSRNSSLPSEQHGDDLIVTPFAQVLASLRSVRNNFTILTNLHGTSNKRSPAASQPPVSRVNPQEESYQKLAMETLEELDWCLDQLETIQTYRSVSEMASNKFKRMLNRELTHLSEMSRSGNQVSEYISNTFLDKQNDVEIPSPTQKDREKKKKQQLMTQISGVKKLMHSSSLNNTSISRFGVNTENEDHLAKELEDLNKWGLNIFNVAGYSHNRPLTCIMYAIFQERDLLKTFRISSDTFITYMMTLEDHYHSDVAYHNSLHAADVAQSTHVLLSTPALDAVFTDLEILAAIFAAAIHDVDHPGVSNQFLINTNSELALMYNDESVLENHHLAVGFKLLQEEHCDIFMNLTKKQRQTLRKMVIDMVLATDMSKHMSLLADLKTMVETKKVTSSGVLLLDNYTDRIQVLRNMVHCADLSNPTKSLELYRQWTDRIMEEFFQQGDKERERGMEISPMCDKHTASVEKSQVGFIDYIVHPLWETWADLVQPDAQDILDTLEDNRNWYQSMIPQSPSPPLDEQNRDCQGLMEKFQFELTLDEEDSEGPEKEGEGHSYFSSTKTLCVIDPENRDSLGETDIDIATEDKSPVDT
Put plainly: IMAP fluorescence polarization PDE assay, PDE4B. The assay is classed as biochemical. As to conditions: substrate cAMP; read-out: Phosphodiesterase Inhibition PDE4B cAMP IC50. As to the method:
as §1, §2, §3

A further assay addresses T6, PDE9A (Homo sapiens, UniProt O76083).
T6 construct: purchased BPS Biosciences
The experiment in a line: IMAP fluorescence polarization PDE assay, PDE9A. It counts as biochemical. To be noted: substrate cGMP; read-out: Phosphodiesterase Inhibition PDE9A cGMP IC50. As to the method:
as §1, §2, §3

The target of a further assay is T7, PDE3A (Homo sapiens, UniProt Q14432).
T7 construct: purchased BPS Biosciences
T7 sequence (Q14432 whole entry): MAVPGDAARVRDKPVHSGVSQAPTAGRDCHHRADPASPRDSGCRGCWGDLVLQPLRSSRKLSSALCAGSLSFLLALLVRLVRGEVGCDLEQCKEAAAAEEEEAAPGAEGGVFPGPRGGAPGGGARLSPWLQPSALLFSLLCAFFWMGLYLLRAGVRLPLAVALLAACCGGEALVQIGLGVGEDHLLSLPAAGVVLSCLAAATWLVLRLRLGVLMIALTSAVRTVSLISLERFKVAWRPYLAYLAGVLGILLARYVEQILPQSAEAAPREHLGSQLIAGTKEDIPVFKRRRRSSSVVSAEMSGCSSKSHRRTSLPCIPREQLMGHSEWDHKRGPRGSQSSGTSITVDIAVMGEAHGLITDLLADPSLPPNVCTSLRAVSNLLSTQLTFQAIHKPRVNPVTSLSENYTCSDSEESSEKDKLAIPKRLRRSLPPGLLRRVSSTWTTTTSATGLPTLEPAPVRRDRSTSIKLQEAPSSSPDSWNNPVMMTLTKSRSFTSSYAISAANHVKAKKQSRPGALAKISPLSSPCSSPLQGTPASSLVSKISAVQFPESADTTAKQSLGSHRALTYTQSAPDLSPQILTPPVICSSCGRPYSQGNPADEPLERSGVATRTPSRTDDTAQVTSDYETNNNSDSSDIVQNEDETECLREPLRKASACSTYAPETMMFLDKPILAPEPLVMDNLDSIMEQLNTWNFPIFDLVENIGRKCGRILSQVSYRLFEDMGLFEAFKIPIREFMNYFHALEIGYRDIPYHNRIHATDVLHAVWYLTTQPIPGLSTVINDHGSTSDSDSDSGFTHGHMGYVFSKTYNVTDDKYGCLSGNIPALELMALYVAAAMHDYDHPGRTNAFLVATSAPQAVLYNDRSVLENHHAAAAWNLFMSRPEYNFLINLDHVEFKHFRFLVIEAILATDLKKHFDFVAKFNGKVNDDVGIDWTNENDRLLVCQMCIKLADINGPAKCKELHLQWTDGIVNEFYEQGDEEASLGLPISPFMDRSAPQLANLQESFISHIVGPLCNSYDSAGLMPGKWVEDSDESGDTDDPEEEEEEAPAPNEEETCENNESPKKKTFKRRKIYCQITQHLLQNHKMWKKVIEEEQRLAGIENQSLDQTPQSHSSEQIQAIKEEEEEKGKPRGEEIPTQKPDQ
The experiment in a line: IMAP fluorescence polarization PDE assay, PDE3A. The assay is classed as biochemical. As to the method:
as §1, §2, §3

Assay [3] concerns HT29 human colon tumor cells. The experiment in a line: Growth assay (Cell Titer Glo), HT29. As to conditions: Homo sapiens, HT-29. The assay is classed as cell-based.
From the text: as §4, §5, §6, §3

Assay [4] has as its system normal colonocytes (NCM460). The experiment in a line: Growth assay (Cell Titer Glo), normal colonocytes NCM460. The assay is classed as cell-based, human. To be noted: for pIC50: Homo sapiens, NCM460.
From the text: as §4, §5, §3

For a further assay, the target named is T8, PDE2A (Homo sapiens, UniProt O00408).
T8 construct: purchased BPS Biosciences
T8 sequence (O00408 whole entry): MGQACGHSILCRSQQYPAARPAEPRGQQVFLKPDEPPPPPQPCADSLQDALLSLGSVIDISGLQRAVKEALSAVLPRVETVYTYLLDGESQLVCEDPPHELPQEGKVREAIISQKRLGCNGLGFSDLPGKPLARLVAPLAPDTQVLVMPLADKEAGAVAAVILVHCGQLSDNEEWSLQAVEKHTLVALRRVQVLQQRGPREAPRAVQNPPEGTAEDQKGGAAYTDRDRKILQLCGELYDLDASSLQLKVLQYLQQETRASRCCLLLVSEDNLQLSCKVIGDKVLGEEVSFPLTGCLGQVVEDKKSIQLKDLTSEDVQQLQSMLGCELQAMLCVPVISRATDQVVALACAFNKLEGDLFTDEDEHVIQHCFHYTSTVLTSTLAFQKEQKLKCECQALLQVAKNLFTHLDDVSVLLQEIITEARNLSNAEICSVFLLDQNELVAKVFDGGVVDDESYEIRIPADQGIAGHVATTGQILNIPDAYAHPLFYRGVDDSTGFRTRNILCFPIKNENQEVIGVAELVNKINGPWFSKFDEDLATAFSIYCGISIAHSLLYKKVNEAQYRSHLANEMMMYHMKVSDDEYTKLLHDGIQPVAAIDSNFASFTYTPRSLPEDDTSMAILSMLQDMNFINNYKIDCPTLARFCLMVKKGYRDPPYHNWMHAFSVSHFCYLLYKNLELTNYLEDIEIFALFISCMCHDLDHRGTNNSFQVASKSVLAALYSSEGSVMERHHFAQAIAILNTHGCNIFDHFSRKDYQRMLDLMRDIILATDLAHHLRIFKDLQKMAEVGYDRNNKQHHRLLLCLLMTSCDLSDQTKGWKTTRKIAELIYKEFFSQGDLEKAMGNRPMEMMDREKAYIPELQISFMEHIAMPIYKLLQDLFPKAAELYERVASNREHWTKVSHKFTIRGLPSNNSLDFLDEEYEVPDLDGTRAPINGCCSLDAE
The experiment in a line: IMAP fluorescence polarization PDE assay, PDE2A. It counts as biochemical. As to the method:
as §1, §2, §3

A further assay deals with T9, PDE5A (Homo sapiens, UniProt O76074).
T9 construct: purchased BPS Biosciences
Put plainly: IMAP fluorescence polarization PDE assay, PDE5A. It counts as biochemical. To be noted: substrate cGMP; read-out: Phosphodiesterase Inhibition PDE5A (PDE5) cGMP IC50. How it is done: as §1, §2, §3

Usually pIC50 stands for −log10 of the IC50, conventionally taken in molar units.

T4 sequence (P54750 whole entry): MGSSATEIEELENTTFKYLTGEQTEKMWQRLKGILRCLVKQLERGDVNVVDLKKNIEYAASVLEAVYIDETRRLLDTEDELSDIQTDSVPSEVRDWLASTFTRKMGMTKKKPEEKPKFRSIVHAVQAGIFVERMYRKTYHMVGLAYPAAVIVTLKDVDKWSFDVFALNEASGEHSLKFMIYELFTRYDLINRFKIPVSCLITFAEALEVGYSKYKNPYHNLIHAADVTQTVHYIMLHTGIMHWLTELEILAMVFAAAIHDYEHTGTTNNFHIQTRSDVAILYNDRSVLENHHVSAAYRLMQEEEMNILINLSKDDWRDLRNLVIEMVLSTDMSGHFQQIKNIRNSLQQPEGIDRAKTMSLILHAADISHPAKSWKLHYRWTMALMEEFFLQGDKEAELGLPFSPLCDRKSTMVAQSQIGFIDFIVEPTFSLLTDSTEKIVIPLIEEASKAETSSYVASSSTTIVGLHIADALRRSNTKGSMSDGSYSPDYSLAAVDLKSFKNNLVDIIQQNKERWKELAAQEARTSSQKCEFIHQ

Turning to `COc1cc2ncnc(N3CC[C@@H](Oc4cnc5ccccc5n4)C3)c2cc1OC` [PQ-10, (R)-6,7-dimethoxy-4-{3-(quinoxalin-2-yloxy)pyrrolidin-1-yl}quinazoline], the pIC50 on PDE10A (Phosphodiesterase Inhibition PDE10A cAMP IC50, substrate cAMP) is 8.27; on PDE10A (Phosphodiesterase Inhibition PDE10A cGMP IC50, substrate cGMP), 8.41; in assay [1] (72 hours of treatment, FIG. 11, read-out: IC50, growth of HCT116 colon tumor cells), 6.54; in [1] (PDE10 Inhibitors table, read-out: Growth Inhibition IC50, HCT-116) it was 6.70; on PDE11A (substrate cAMP, read-out: Phosphodiesterase Inhibition PDE11A cAMP IC50), 4.52; on PDE11A (substrate cGMP, read-out: Phosphodiesterase Inhibition PDE11A cGMP IC50), 4.88. For the same molecule, the pIC50 in assay [2] (72 hours of treatment, FIG. 11C, read-out: IC50, growth of SW-480 colon tumor cells) is 6.66; in assay [2] (PDE10 Inhibitors table, read-out: Growth Inhibition IC50, SW-480), 6.70; on PDE3B it was 6.56; at PDE1A (substrate cAMP, read-out: Phosphodiesterase Inhibition PDE1A cAMP IC50) it was 4.53; at PDE1A (substrate cGMP, read-out: Phosphodiesterase Inhibition PDE1A cGMP IC50) it was 5.06; at PDE4B, 4.75. For the same molecule, the negative logarithm of the IC50 (pIC50) at PDE9A is below 3.70; on PDE3A (substrate cAMP, read-out: Phosphodiesterase Inhibition PDE3A cAMP IC50), 6.33; at PDE3A (substrate cGMP, read-out: Phosphodiesterase Inhibition PDE3A cGMP IC50), 6.68; in assay [3] (72 hours of treatment, FIG. 11, read-out: IC50, growth of HT29 colon tumor cells), 6.89; in assay [3] (PDE10 Inhibitors table, read-out: Growth Inhibition IC50, HT-29) it was 6.71; in assay [4] (72 hours of treatment, FIG. 11, read-out: IC50, growth of normal colonocytes (NCM460)) it was 5.08. The pIC50 in assay [4] (PDE10 Inhibitors table, read-out: Growth Inhibition IC50, NCM-460) was below 5.30; at PDE2A (substrate cAMP, read-out: Phosphodiesterase Inhibition PDE2A cAMP IC50), 5.15; on PDE2A (substrate cGMP, read-out: Phosphodiesterase Inhibition PDE2A cGMP IC50), 5.43; on PDE5A, 5.74. Moreover, in [4] (NCM460 vs HCT116, SW-480 and HT29), the “normal colonocytes (NCM460) less sensitive than colon tumor cell lines” value is “approximately 40 times”.
